Measurements published in US9737583B2, “Composition for prevention or treatment of acute renal failure including herbal extract or fraction thereof as active ingredient” (KOREA INSTITUTE OF ORIENTAL MEDICINE, priority 2012, dated 2017).

Assays:
Format in all cases: cell-based
renal cells [1] = assay: Measurement of ROS generation (DCF-DA); details: single treatment, after 24 hours; based on 100% ROS generation of the control group; FIGS. 4a to 4e
Description: In order to measure antioxidant effect of the Amomi Rotundus Fructus extract and the fraction thereof in renal cells, ROS generation test was performed. First, renal cells were seeded at a density of 1×10^5 cells per well of 96-well plate. After 24 hours, the cells were pre-treated with 100 μg of the Amomi Rotundus Fructus extract. 2 hours after treatment, cisplatin was treated at a final concentration of 25 μg/ml, followed by culture for 24 hours. DCF-DA dissolved in PBS was treated in the dark according to the treatment concentration of DCF-DA and the reaction time which were determined by historical data and preliminary experiment, and reaction was allowed for 5 hours under basic culture conditions. At the time point of 0, 4, 8, 12, 16, 20, 24 hr, end-point fluorescence wavelength at Ex: 485 nm and Em: 528 nm was measured at S=50.

renal cells [2] = assay: Measurement of GSH content; details: single treatment of cisplatin, culture 24 hours; FIGS. 5a to 5e
Description: Because GSH level is known as an index to evaluate a cell-protecting effect on drug-induced cellular injury, GSH level was measured to examine the cell-protecting effect of the Amomi Rotundus Fructus extract or the fraction thereof against cisplatin. The GSH levels were determined by monochlorobimane, and experiments for measuring GSH content were performed using the kidney tissues with reference to the conventional method of Fernandez-Checa and Kaplowitz. The number of cells, in which GSH is detectable, was determined by historical data and preliminary experiment, and 2×10^6 cells were seeded to each well of culture plate. After culture for 24 hours, the dilution fold of the final concentration of the drug determined as an active drug was considered and calculated, based on the results of MTT Assay and crystal violet Assay. […] Centrifugation was carried out at 10,000 rpm for 15 minutes, and then the supernatant was collected and used for BCA protein quantification. […] End-point fluorescence wavelength at Ex: 360 nm and Em: 460 nm was measured at S=70. Data of the experimental results were analyzed using Microsoft Excel program, and post-test analysis using Bonferroni multiple comparison test was performed to investigate the differences between the groups. p<0.001 was considered statistically significant.

renal cells [3] = assay: MTT assay, cell viability of renal cells with or without cisplatin
Description: To measure cell viability of renal cells by the Amomi Rotundus Fructus extract and the fraction thereof, MTT assay was performed. First, renal cells were seeded at a density of 1×10^4 cells per well of 96-well plate. After 24 hours, the cells were treated with each 50 μg thereof which was prepared by dilution at three final concentrations (50, 100, 200 μg/ml). After 2 hours, cisplatin was treated at a final concentration of 25 μg/ml, and cells were cultured for 24 hours. After 24 hours, 10 μl of the assay reagent of EZ-Cytox Cell Viability assay kit was added to each well using a Micro multi Pipette, taking care to introduce no bubbles, and reaction was allowed for 4 hours under basic culture conditions. Absorbance at 450 nm was measured. p<0.005 was considered statistically significant.

p53 = assay: Examination of p53 expression pattern (western blot); details: single treatment of cisplatin; FIG. 6
Description: Cells treated with Amomi Rotundus Fructus extract and/or cisplatin were harvested, and RIPA buffer was added thereto, followed by sonication for cell lysis. Centrifugation was performed at 15,000 rpm for 15 minutes, and the supernatant was obtained, and subjected to protein quantification by BCA assay. The protein was loaded at an amount of 20 μg/10 μl in each well, and 12% SDS-PAGE polyacrylamide gel electrophoresis was performed, and transferred to a nitrocellulose membrane. The membrane was blocked with 5% Skim milk-TBST, and then treated with primary antibody (anti-p53/dilution-1:300). p53 was detected with HRP conjugated anti-mouse IgG (dilution-1:5000) and immune reaction was visualized by ECL. The measurement results are shown as Mean±S.E.M. (standard error of mean) in FIG. 6. Data of the experimental results were analyzed using Microsoft Excel program, and post-test analysis using Bonferroni multiple comparison test was performed to investigate the differences between the groups. p<0.001 was considered statistically significant, and expressed as *; p<0.001 to compare with cisplatin.

Question: `N.N.[Cl][Pt][Cl]` [cisplatin, cis-diaminedichloroplatinum II] was tested. Which ROS generation (renal cells [1]) did it give?
Answer: ≥ 170%

Question: And the GSH content (renal cells [2])?
Answer: reduced

Question: What about the cell viability (renal cells [3]; pre-treatment 50, 100, 200 μg/ml, cisplatin 25 μg/ml after 2 hours, culture 24 hours, based on 100% cell viability of the control group, FIGS. 2a to 2e) of the same molecule?
Answer: remarkably reduced

Question: What about the cell activity (renal cells [3]; single treatment, based on 100% cell activity of the control group, FIGS. 3a to 3e) of the same molecule?
Answer: ≤ 40%

Question: And the p53 expression level (p53)?
Answer: remarkably increased
